From patent publication US20260166128A1, “HUMAN AMYLIN ANALOG, AND DERIVATIVE THEREOF AND USE THEREOF” (priority 2022, published 2026)
Numbered stars: 1 amine (or outer) side, 2 acyl side, 3 side chain; on linkers, the order of the positions; unused ones are H or OH. Bridge positions count the residues as written; N and C are the ends. Square brackets hold non-standard residues; d marks the D form. Side chains are listed from the residue outwards. Peptide text beside a SMILES is read from it. * marks the point of attachment. C20 diacid = O=C(O)CCCCCCCCCCCCCCCCCCC(=O)*; C18 diacid = O=C(O)CCCCCCCCCCCCCCCCC(=O)*; γGlu = O=C(O)[C@H](CCC(=O)[*:2])N[*:1]; Hyp = O=C(O)[C@@H]1C[C@@H](O)CN1; AEEA = NCCOCCOCC(=O)O

Columns and labels:
human amylin receptor = target: T1, human amylin receptor (Homo sapiens, UniProt O60896+P30988); assay: Luciferase assay of amylin derivatives in amylin receptor/CRE-luc CHO cell line; type: cell-based; conditions: CHO-K1/Ga15/AMY3 CRE-luc cells, 24 hours incubation, F12 medium containing 10% FBS; read-out: EC50
T1 construct: host or cells: CHO-K1/Ga15/AMY3 cells, further stably transfected with a CRE-luciferase plasmid
T1 sequence (P30988 25-474): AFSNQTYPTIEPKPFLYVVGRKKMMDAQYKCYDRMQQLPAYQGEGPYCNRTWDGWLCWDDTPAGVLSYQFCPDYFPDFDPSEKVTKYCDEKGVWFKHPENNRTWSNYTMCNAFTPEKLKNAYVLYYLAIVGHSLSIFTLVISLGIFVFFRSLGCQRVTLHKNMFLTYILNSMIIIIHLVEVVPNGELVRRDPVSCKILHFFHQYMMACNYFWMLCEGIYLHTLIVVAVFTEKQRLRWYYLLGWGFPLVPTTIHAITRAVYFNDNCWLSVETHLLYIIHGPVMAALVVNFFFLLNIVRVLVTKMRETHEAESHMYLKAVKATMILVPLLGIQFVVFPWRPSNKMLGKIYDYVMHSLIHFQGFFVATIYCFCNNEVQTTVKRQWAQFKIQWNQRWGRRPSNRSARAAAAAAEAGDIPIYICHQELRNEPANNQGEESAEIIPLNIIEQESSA
T1 sequence (O60896 24-148 partner): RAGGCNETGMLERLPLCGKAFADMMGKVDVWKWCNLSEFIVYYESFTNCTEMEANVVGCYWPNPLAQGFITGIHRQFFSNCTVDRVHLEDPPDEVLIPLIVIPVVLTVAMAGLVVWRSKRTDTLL
Description: The experiment was intended to detect the activity or efficacy of the amylin derivatives on a human amylin receptor in vitro by luciferase assay.
50 μL of growth medium (F12 medium containing 10% FBS) was added into each well of a white 96-well plate, and the stably transfected amylin/CRE-lue CHO cells were inoculated into the white 96-well plate at a density of about 20,000 cells/well for activity determination.

[1] = Freeze-thaw stability of derivatives (freeze-thaw yield by liquid chromatography); type: physicochemical; conditions: for Dissolution property: appearance after dissolution at 0.2 mg/ml in 20 mM phosphate buffer solution (PB) (pH 7.0); for Freeze storage property: appearance after overnight storage at −20° C. and thawing to room temperature, 0.2 mg/ml in 20 mM PB (pH 7.0); for Freeze storage yield: concentration of polypeptide after freezing and thawing / concentration before, by liquid chromatography, −20° C. overnight
In short: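 Freeze-thaw yield is the ratio of peptide concentration after versus before one overnight −20° C freeze and room-temperature thaw, both quantified by RP-HPLC of supernatant after centrifugation. Samples were 0.2 mg/ml freeze-dried derivative in 20 mM PB, pH 7.0.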

SMILES	EC50 (human amylin receptor)	Dissolution property [1]	Freeze storage property [1]	Freeze storage yield [1]
CC[C@H](C)[C@H](NC(=O)[C@@H]1CCCN1C(=O)[C@H](CCCCNC(=O)COCCOCCNC(=O)CC[C@H](NC(=O)CCCCCCCCCCCCCCCCC(=O)O)C(=O)O)NC(=O)[C@H](CC(C)C)NC(=O)[C@H](CC(N)=O)NC(=O)[C@H](CC(N)=O)NC(=O)[C@H](CO)NC(=O)[C@H](CO)NC(=O)[C@H](Cc1c[nH]cn1)NC(=O)[C@H](CCCNC(=N)N)NC(=O)[C@H](CC(C)C)NC(=O)[C@H](Cc1ccccc1)NC(=O)[C@H](CC(=O)O)NC(=O)[C@H](C)NC(=O)[C@H](CC(C)C)NC(=O)[C@H](CCCNC(=N)N)NC(=O)[C@H](CCC(N)=O)NC(=O)[C@@H](NC(=O)[C@H](C)NC(=O)[C@@H]1CSSC[C@H](NC(=O)[C@@H](N)CCCNC(=N)N)C(=O)N[C@@H](CC(N)=O)C(=O)N[C@@H]([C@@H](C)O)C(=O)N[C@@H](C)C(=O)N[C@@H]([C@@H](C)O)C(=O)N1)[C@@H](C)O)C(=O)N[C@@H](CC(C)C)C(=O)N1CCC[C@H]1C(=O)N1CCC[C@H]1C(=O)N[C@H](C(=O)N[C@@H](CC(N)=O)C(=O)N[C@H](C(=O)NCC(=O)N[C@@H](CO)C(=O)N[C@@H](CC(N)=O)C(=O)N[C@H](C(=O)N1C[C@H](O)C[C@H]1C(N)=O)[C@@H](C)O)C(C)C)[C@@H](C)O [PD108] (H-RCNTATCATQRLADFLRHSSNNLK([AEEA-γGlu-C18 diacid])PILPPTNVGSNT[Hyp]-NH2; disulfide 2-7 (inferred); N-terminus assumed)	0.028 nM	Clear	Clear	96.86%
CC[C@H](C)[C@H](NC(=O)[C@@H]1CCCN1C(=O)CNC(=O)[C@H](CC(C)C)NC(=O)[C@H](CC(N)=O)NC(=O)[C@H](CCCCNC(=O)COCCOCCNC(=O)CC[C@H](NC(=O)CCCCCCCCCCCCCCCCCCC(=O)O)C(=O)O)NC(=O)[C@H](CO)NC(=O)[C@H](CO)NC(=O)[C@H](Cc1c[nH]cn1)NC(=O)[C@H](CCCNC(=N)N)NC(=O)[C@H](CC(C)C)NC(=O)[C@H](Cc1ccccc1)NC(=O)[C@H](CC(=O)O)NC(=O)[C@H](C)NC(=O)[C@H](CC(C)C)NC(=O)[C@H](CCCNC(=N)N)NC(=O)[C@H](CCC(N)=O)NC(=O)[C@@H](NC(=O)[C@H](C)NC(=O)[C@@H]1CSSC[C@H](NC(=O)[C@@H](N)CCCNC(=N)N)C(=O)N[C@@H](CC(N)=O)C(=O)N[C@@H]([C@@H](C)O)C(=O)N[C@@H](C)C(=O)N[C@@H]([C@@H](C)O)C(=O)N1)[C@@H](C)O)C(=O)N[C@@H](CC(C)C)C(=O)N1CCC[C@H]1C(=O)N1CCC[C@H]1C(=O)N[C@H](C(=O)N[C@@H](CC(N)=O)C(=O)N[C@H](C(=O)NCC(=O)N[C@@H](CO)C(=O)N[C@@H](CC(N)=O)C(=O)N[C@H](C(=O)N1C[C@H](O)C[C@H]1C(N)=O)[C@@H](C)O)C(C)C)[C@@H](C)O [PD114] (H-RCNTATCATQRLADFLRHSSK([AEEA-γGlu-C20 diacid])NLGPILPPTNVGSNT[Hyp]-NH2; disulfide 2-7 (inferred); N-terminus assumed)	0.029 nM	Clear	Clear	101.02%
CC[C@H](C)[C@H](NC(=O)[C@@H]1CCCN1C(=O)CNC(=O)[C@H](CC(C)C)NC(=O)[C@H](CC(N)=O)NC(=O)[C@H](CC(N)=O)NC(=O)[C@H](CCCCNC(=O)COCCOCCNC(=O)CC[C@H](NC(=O)CCCCCCCCCCCCCCCCC(=O)O)C(=O)O)NC(=O)[C@H](CO)NC(=O)[C@H](Cc1c[nH]cn1)NC(=O)[C@H](CCCNC(=N)N)NC(=O)[C@H](CC(C)C)NC(=O)[C@H](Cc1ccccc1)NC(=O)[C@H](CC(=O)O)NC(=O)[C@H](C)NC(=O)[C@H](CC(C)C)NC(=O)[C@H](CCCNC(=N)N)NC(=O)[C@H](CCC(N)=O)NC(=O)[C@@H](NC(=O)[C@H](C)NC(=O)[C@@H]1CSSC[C@H](NC(=O)[C@@H](N)CCCNC(=N)N)C(=O)N[C@@H](CC(N)=O)C(=O)N[C@@H]([C@@H](C)O)C(=O)N[C@@H](C)C(=O)N[C@@H]([C@@H](C)O)C(=O)N1)[C@@H](C)O)C(=O)N[C@@H](CC(C)C)C(=O)N1CCC[C@H]1C(=O)N1CCC[C@H]1C(=O)N[C@H](C(=O)N[C@@H](CC(N)=O)C(=O)N[C@H](C(=O)NCC(=O)N[C@@H](CO)C(=O)N[C@@H](CC(N)=O)C(=O)N[C@H](C(=O)N1C[C@H](O)C[C@H]1C(N)=O)[C@@H](C)O)C(C)C)[C@@H](C)O [PD117] (H-RCNTATCATQRLADFLRHSK([AEEA-γGlu-C18 diacid])NNLGPILPPTNVGSNT[Hyp]-NH2; disulfide 2-7 (inferred); N-terminus assumed)	0.014 nM	Clear	Clear	93.49%
CC[C@H](C)[C@H](NC(=O)[C@@H]1CCCN1C(=O)CNC(=O)[C@H](CC(C)C)NC(=O)[C@H](CC(N)=O)NC(=O)[C@H](CC(N)=O)NC(=O)[C@H](CO)NC(=O)[C@H](CCCCNC(=O)COCCOCCNC(=O)CC[C@H](NC(=O)CCCCCCCCCCCCCCCCC(=O)O)C(=O)O)NC(=O)[C@H](Cc1c[nH]cn1)NC(=O)[C@H](CCCNC(=N)N)NC(=O)[C@H](CC(C)C)NC(=O)[C@H](Cc1ccccc1)NC(=O)[C@H](CC(=O)O)NC(=O)[C@H](C)NC(=O)[C@H](CC(C)C)NC(=O)[C@H](CCCNC(=N)N)NC(=O)[C@H](CCC(N)=O)NC(=O)[C@@H](NC(=O)[C@H](C)NC(=O)[C@@H]1CSSC[C@H](NC(=O)[C@@H](N)CCCNC(=N)N)C(=O)N[C@@H](CC(N)=O)C(=O)N[C@@H]([C@@H](C)O)C(=O)N[C@@H](C)C(=O)N[C@@H]([C@@H](C)O)C(=O)N1)[C@@H](C)O)C(=O)N[C@@H](CC(C)C)C(=O)N1CCC[C@H]1C(=O)N1CCC[C@H]1C(=O)N[C@H](C(=O)N[C@@H](CC(N)=O)C(=O)N[C@H](C(=O)NCC(=O)N[C@@H](CO)C(=O)N[C@@H](CC(N)=O)C(=O)N[C@H](C(=O)N1C[C@H](O)C[C@H]1C(N)=O)[C@@H](C)O)C(C)C)[C@@H](C)O [PD119] (H-RCNTATCATQRLADFLRHK([AEEA-γGlu-C18 diacid])SNNLGPILPPTNVGSNT[Hyp]-NH2; disulfide 2-7 (inferred); N-terminus assumed)	0.024 nM	Clear	Clear	103.04%
CC[C@H](C)[C@H](NC(=O)[C@H](CCCCNC(=O)COCCOCCNC(=O)CC[C@H](NC(=O)CCCCCCCCCCCCCCCCCCC(=O)O)C(=O)O)NC(=O)CNC(=O)[C@H](CC(C)C)NC(=O)[C@H](CC(N)=O)NC(=O)[C@H](CC(N)=O)NC(=O)[C@H](CO)NC(=O)[C@H](CO)NC(=O)[C@H](Cc1c[nH]cn1)NC(=O)[C@H](CCCNC(=N)N)NC(=O)[C@H](CC(C)C)NC(=O)[C@H](Cc1ccccc1)NC(=O)[C@H](CC(=O)O)NC(=O)[C@H](C)NC(=O)[C@H](CC(C)C)NC(=O)[C@H](CCCNC(=N)N)NC(=O)[C@H](CCC(N)=O)NC(=O)[C@@H](NC(=O)[C@H](C)NC(=O)[C@@H]1CSSC[C@H](NC(=O)[C@@H](N)CCCNC(=N)N)C(=O)N[C@@H](CC(N)=O)C(=O)N[C@@H]([C@@H](C)O)C(=O)N[C@@H](C)C(=O)N[C@@H]([C@@H](C)O)C(=O)N1)[C@@H](C)O)C(=O)N[C@@H](CC(C)C)C(=O)N1CCC[C@H]1C(=O)N1CCC[C@H]1C(=O)N[C@H](C(=O)N[C@@H](CC(N)=O)C(=O)N[C@H](C(=O)NCC(=O)N[C@@H](CO)C(=O)N[C@@H](CC(N)=O)C(=O)N[C@H](C(=O)N1C[C@H](O)C[C@H]1C(N)=O)[C@@H](C)O)C(C)C)[C@@H](C)O [PD120] (H-RCNTATCATQRLADFLRHSSNNLGK([AEEA-γGlu-C20 diacid])ILPPTNVGSNT[Hyp]-NH2; disulfide 2-7 (inferred); N-terminus assumed)	0.023 nM	Clear	Clear	103.41%
